Assays:
Type in all cases: functional
Staphylococcus aureus [1] = assay: Antibacterial activity against Staphylococcus aureus ATCC 29213 in CAMHB medium by broth microdilution method in absence of 0.002% polysorbate 80
Enterococcus faecalis [2] = assay: Antibacterial activity against Enterococcus faecalis clinical isolate by broth microdilution method
Staphylococcus aureus [3] = assay: Antibacterial activity against Staphylococcus aureus ATCC 29213 in CAMHB medium containing 2% LHB by broth microdilution method in presence of 0.002% polysorbate 80
Streptococcus pneumoniae [4] = assay: Antibacterial activity against Streptococcus pneumoniae clinical isolate by broth microdilution method in presence of 0.002% polysorbate 80
Enterococcus faecalis [5] = assay: Antibacterial activity against Enterococcus faecalis ATCC 29212 in CAMHB medium containing 2% LHB by broth microdilution method in absence of 0.002% polysorbate 80
Streptococcus viridans [6] = assay: Antibacterial activity against Streptococcus viridans group clinical isolate by broth microdilution method in presence of 0.002% polysorbate 80
[7] = Antibacterial activity against Streptococcus Group C clinical isolate by broth microdilution method; conditions: Streptococcus sp. 'group C'
Enterococcus faecalis [8] = assay: Antibacterial activity against Enterococcus faecalis ATCC 29212 in CAMHB medium containing 2% LHB by broth microdilution method in presence of 0.002% polysorbate 80
Streptococcus agalactiae [9] = assay: Antibacterial activity against Streptococcus agalactiae clinical isolate using 2% LHB by broth microdilution method
[10] = Antibacterial activity against Streptococcus Group G clinical isolate by broth microdilution method; conditions: Streptococcus sp. 'group G'
Streptococcus pneumoniae [11] = assay: Antibacterial activity against Streptococcus pneumoniae clinical isolate by broth microdilution method
Staphylococcus aureus [12] = assay: Antibacterial activity against Staphylococcus aureus ATCC 29213 in CAMHB medium containing 2% LHB by broth microdilution method in absence of 0.002% polysorbate 80
Staphylococcus [13] = assay: Antibacterial activity against coagulase-negative Staphylococcus clinical isolate by broth microdilution method in presence of 0.002% polysorbate 80
Staphylococcus aureus [14] = assay: Ratio of MIC for Staphylococcus aureus clinical isolate to MIC for Staphylococcus aureus clinical isolate in presence of 0.002% polysorbate 80
Staphylococcus aureus [15] = assay: Antibacterial activity against Staphylococcus aureus clinical isolate by broth microdilution method in presence of 0.002% polysorbate 80
Enterococcus faecalis [16] = assay: Ratio of MIC for Enterococcus faecalis clinical isolate to MIC for Enterococcus faecalis clinical isolate in presence of 0.002% polysorbate 80
Streptococcus pyogenes [17] = assay: Ratio of MIC for Streptococcus pyogenes clinical isolate to MIC for Streptococcus pyogenes clinical isolate in presence of 0.002% polysorbate 80
Enterococcus faecalis [18] = assay: Antibacterial activity against Enterococcus faecalis clinical isolate by broth microdilution method in presence of 0.002% polysorbate 80
Streptococcus pneumoniae [19] = assay: Antibacterial activity against Streptococcus pneumoniae ATCC 49619 in BHI broth by broth microdilution method in presence of 0.002% polysorbate 80
Staphylococcus aureus [20] = assay: Antibacterial activity against Staphylococcus aureus clinical isolate by broth microdilution method
Enterococcus faecalis [21] = assay: Antibacterial activity against Enterococcus faecalis ATCC 29212 in CAMHB medium by broth microdilution method in absence of 0.002% polysorbate 80
Enterococcus faecium [22] = assay: Antibacterial activity against Enterococcus faecium clinical isolate by broth microdilution method
Streptococcus pneumoniae [23] = assay: Antibacterial activity against Streptococcus pneumoniae ATCC 49619 in CAMHB medium containing 2% LHB by broth microdilution method in presence of 0.002% polysorbate 80
Staphylococcus aureus [24] = assay: Antibacterial activity against Staphylococcus aureus ATCC 29213 in CAMHB medium by broth microdilution method in presence of 0.002% polysorbate 80
Enterococcus faecium [25] = assay: Ratio of MIC for Enterococcus faecium clinical isolate to MIC for Enterococcus faecium clinical isolate in presence of 0.002% polysorbate 80
Streptococcus pyogenes [26] = assay: Antibacterial activity against Streptococcus pyogenes clinical isolate by broth microdilution method
Streptococcus pneumoniae [27] = assay: Antibacterial activity against Streptococcus pneumoniae ATCC 49619 in BHI broth containing 2% LHB by broth microdilution method in presence of 0.002% polysorbate 80
Streptococcus agalactiae [28] = assay: Antibacterial activity against Streptococcus agalactiae clinical isolate using 2% LHB by broth microdilution method in presence of 0.002% polysorbate 80
Streptococcus viridans [29] = assay: Antibacterial activity against Streptococcus viridans group clinical isolate by broth microdilution method
Streptococcus pneumoniae [30] = assay: Ratio of MIC for Streptococcus pneumoniae clinical isolate to MIC for Streptococcus pneumoniae clinical isolate in presence of 0.002% polysorbate 80
Enterococcus faecium [31] = assay: Antibacterial activity against Enterococcus faecium clinical isolate by broth microdilution method in presence of 0.002% polysorbate 80
Streptococcus pneumoniae [32] = assay: Antibacterial activity against Streptococcus pneumoniae ATCC 49619 in BHI broth by broth microdilution method in absence of 0.002% polysorbate 80
Staphylococcus [33] = assay: Ratio of MIC for coagulase-negative Staphylococcus clinical isolate to MIC for coagulase-negative Staphylococcus clinical isolate in presence of 0.002% polysorbate 80
Staphylococcus [34] = assay: Antibacterial activity against coagulase-negative Staphylococcus clinical isolate by broth microdilution method
Enterococcus faecalis [35] = assay: Antibacterial activity against Enterococcus faecalis ATCC 29212 in CAMHB medium by broth microdilution method in presence of 0.002% polysorbate 80
[36] = Antibacterial activity against Streptococcus Group G clinical isolate by broth microdilution method in presence of 0.002% polysorbate 80; conditions: Streptococcus sp. 'group G'
Streptococcus pneumoniae [37] = assay: Antibacterial activity against Streptococcus pneumoniae ATCC 49619 in BHI broth containing 2% LHB by broth microdilution method in absence of 0.002% polysorbate 80
Streptococcus agalactiae [38] = assay: Ratio of MIC for Streptococcus agalactiae clinical isolate to MIC for Streptococcus agalactiae clinical isolate in presence of 0.002% polysorbate 80
[39] = Antibacterial activity against Streptococcus Group C clinical isolate by broth microdilution method in presence of 0.002% polysorbate 80; conditions: Streptococcus sp. 'group C'
Streptococcus pyogenes [40] = assay: Antibacterial activity against Streptococcus pyogenes clinical isolate by broth microdilution method in presence of 0.002% polysorbate 80
Streptococcus pneumoniae [41] = assay: Antibacterial activity against Streptococcus pneumoniae ATCC 49619 in CAMHB medium containing 2% LHB by broth microdilution method in absence of 0.002% polysorbate 80
Streptococcus viridans [42] = assay: Ratio of MIC for Streptococcus viridans group clinical isolate to MIC for Streptococcus viridans group clinical isolate in presence of 0.002% polysorbate 80
Staphylococcus aureus [43] = assay: Antibacterial activity against Staphylococcus aureus ATCC 29213 assessed as reduction in compound MIC by broth microdilution method in presence of 0.002% polysorbate 80 in solvent
Staphylococcus aureus [44] = assay: Antibacterial activity against Staphylococcus aureus ATCC 29213 assessed as reduction in compound MIC by broth microdilution method in presence of 0.002% polysorbate 80 in inoculum

CC(=O)N[C@@H]1[C@H](Oc2c3cc4cc2Oc2ccc(cc2Cl)[C@@H](O[C@@H]2O[C@@H](CO)[C@@H](O)[C@H](O)[C@@H]2NC(C)=O)[C@@H]2NC(=O)[C@H](NC(=O)[C@@H]4NC(=O)[C@H]4NC(=O)[C@@H](Cc5ccc(c(Cl)c5)O3)NC(=O)[C@H](N)c3ccc(O)c(c3)Oc3cc(O)cc4c3)c3ccc(O)c(c3)-c3c(O[C@H]4O[C@H](CO)[C@@H](O)[C@@H](O)[C@@H]4O)cc(O)cc3[C@@H](C(=O)O)NC2=O)O[C@@H](CO)[C@@H](O)[C@@H]1O
64 µg/mL: MIC90 (Enterococcus faecium [22])
1: Ratio (Staphylococcus aureus [14]) | Ratio (Streptococcus pneumoniae [30]) | Ratio (Staphylococcus [33]) | Ratio (Streptococcus agalactiae [38])
0.5: Ratio (Enterococcus faecium [25]) | Ratio (Streptococcus viridans [42])
0.06 µg/mL: MIC (Streptococcus pneumoniae [4]) | MIC90 (Streptococcus pneumoniae [4]) | MIC90 (Streptococcus agalactiae [9]) | MIC (Streptococcus pneumoniae [11]) | MIC90 (Streptococcus pneumoniae [11]) | MIC90 (Streptococcus pyogenes [26]) | MIC90 (Streptococcus agalactiae [28])
2 µg/mL: MIC90 (Staphylococcus [13]) | MIC90 (Staphylococcus [34])
1 µg/mL: MIC (Enterococcus faecalis [5]) | MIC (Staphylococcus aureus [12])
2: Ratio (Streptococcus pyogenes [17])
0.12 µg/mL: MIC90 (Streptococcus viridans [6]) | MIC90 (Enterococcus faecalis [18]) | MIC90 (Streptococcus viridans [29])
0.5 µg/mL: MIC (Staphylococcus aureus [1]) | MIC90 (Enterococcus faecalis [2]) | MIC (Staphylococcus aureus [3]) | MIC (Enterococcus faecalis [8]) | MIC90 (Staphylococcus aureus [15]) | MIC90 (Staphylococcus aureus [20]) | MIC (Enterococcus faecalis [21]) | MIC (Staphylococcus aureus [24]) | MIC (Enterococcus faecalis [35])
4: Ratio (Enterococcus faecalis [16])
128 µg/mL: MIC90 (Enterococcus faecium [31])
0.03 µg/mL: MIC [7] | MIC [10] | MIC (Streptococcus pneumoniae [19]) | MIC (Streptococcus pneumoniae [23]) | MIC (Streptococcus pneumoniae [27]) | MIC (Streptococcus pneumoniae [32]) | MIC [36] | MIC (Streptococcus pneumoniae [37]) | MIC [39] | MIC90 (Streptococcus pyogenes [40]) | MIC (Streptococcus pneumoniae [41])

O=C(O)c1cn(C2CC2)c2cc(N3CCNCC3)c(F)cc2c1=O [CIPROFLOXACIN]
0.5 µg/mL: MIC (Staphylococcus aureus [1]) | MIC (Staphylococcus aureus [3]) | MIC (Enterococcus faecalis [5]) | MIC (Enterococcus faecalis [8]) | MIC (Staphylococcus aureus [12]) | MIC (Enterococcus faecalis [21]) | MIC (Staphylococcus aureus [24]) | MIC (Enterococcus faecalis [35])
1 µg/mL: MIC (Streptococcus pneumoniae [23]) | MIC (Streptococcus pneumoniae [27])

CN[C@H](CC(C)C)C(=O)N[C@H]1C(=O)N[C@@H](CC(N)=O)C(=O)N[C@H]2C(=O)N[C@H]3C(=O)N[C@H](C(=O)N[C@H](C(=O)O)c4cc(O)cc(O)c4-c4cc3ccc4O)[C@H](O[C@H]3C[C@](C)(N)[C@@H](O)[C@H](C)O3)c3ccc(c(Cl)c3)Oc3cc2cc(c3O[C@@H]2O[C@H](CO)[C@@H](O)[C@H](O)[C@H]2O[C@H]2C[C@](C)(NCc3ccc(-c4ccc(Cl)cc4)cc3)[C@@H](O)[C@H](C)O2)Oc2ccc(cc2Cl)[C@H]1O [ORITAVANCIN]
0.004 µg/mL: MIC90 (Streptococcus pneumoniae [4]) | MIC [7] | MIC [10] | MIC90 (Streptococcus pneumoniae [11]) | MIC [36] | MIC [39]
0.008 µg/mL: MIC (Streptococcus pneumoniae [32])
32: Ratio (Staphylococcus aureus [14])
0.001 µg/mL: MIC (Streptococcus pneumoniae [19]) | MIC (Streptococcus pneumoniae [27]) | MIC (Streptococcus pneumoniae [37]) | MIC (Streptococcus pneumoniae [41])
2 µg/mL: MIC90 (Enterococcus faecalis [2])
16: fold change (FC) (Staphylococcus aureus [43]) | Ratio (Enterococcus faecalis [16]) | Ratio (Enterococcus faecium [25]) | Ratio (Staphylococcus [33])
0.25 µg/mL: MIC90 (Staphylococcus [13]) | MIC90 (Streptococcus pyogenes [26]) | MIC90 (Streptococcus agalactiae [28]) | MIC90 (Enterococcus faecium [31]) | MIC90 (Streptococcus pyogenes [40])
0.12 µg/mL: MIC90 (Staphylococcus aureus [15]) | MIC90 (Enterococcus faecalis [18])
1: Ratio (Streptococcus pyogenes [17]) | Ratio (Streptococcus pneumoniae [30]) | Ratio (Streptococcus viridans [42])
0.5 µg/mL: MIC (Enterococcus faecalis [21])
4: fold change (FC) (Staphylococcus aureus [44])
0.002 µg/mL: MIC (Streptococcus pneumoniae [23])
0.016 µg/mL: MIC (Enterococcus faecalis [5])
4 µg/mL: MIC90 (Staphylococcus aureus [20]) | MIC90 (Enterococcus faecium [22]) | MIC90 (Staphylococcus [34])
0.03 µg/mL: MIC (Staphylococcus aureus [3]) | MIC (Enterococcus faecalis [8]) | MIC (Staphylococcus aureus [12]) | MIC (Staphylococcus aureus [24]) | MIC (Enterococcus faecalis [35])
1 µg/mL: MIC (Staphylococcus aureus [1]) | MIC90 (Streptococcus viridans [6]) | MIC90 (Streptococcus agalactiae [9]) | MIC90 (Streptococcus viridans [29])

CN[C@H](CC(C)C)C(=O)N[C@H]1C(=O)N[C@@H](CC(N)=O)C(=O)N[C@H]2C(=O)N[C@H]3C(=O)N[C@H](C(=O)N[C@H](C(=O)O)c4cc(O)cc(O)c4-c4cc3ccc4O)[C@H](O)c3ccc(c(Cl)c3)Oc3cc2cc(c3O[C@@H]2O[C@H](CO)[C@@H](O)[C@H](O)[C@H]2O[C@H]2C[C@](C)(N)[C@H](O)[C@H](C)O2)Oc2ccc(cc2Cl)[C@H]1O [VANCOMYCIN]
0.5 µg/mL: MIC90 (Streptococcus viridans [6]) | MIC90 (Streptococcus agalactiae [9]) | MIC90 (Streptococcus agalactiae [28]) | MIC90 (Streptococcus viridans [29])
1 µg/mL: MIC90 (Staphylococcus aureus [15]) | MIC90 (Staphylococcus aureus [20]) | MIC90 (Staphylococcus [34])
0.12 µg/mL: MIC [7] | MIC [39]
0.25 µg/mL: MIC90 (Streptococcus pneumoniae [4]) | MIC [10] | MIC90 (Streptococcus pneumoniae [11]) | MIC (Streptococcus pneumoniae [19]) | MIC (Streptococcus pneumoniae [23]) | MIC (Streptococcus pyogenes [26]) | MIC90 (Streptococcus pyogenes [26]) | MIC (Streptococcus pneumoniae [27]) | MIC (Streptococcus pneumoniae [32]) | MIC [36] | MIC (Streptococcus pneumoniae [37]) | MIC (Streptococcus pyogenes [40]) | MIC90 (Streptococcus pyogenes [40]) | MIC (Streptococcus pneumoniae [41])
> 256 µg/mL: MIC90 (Enterococcus faecium [22]) | MIC90 (Enterococcus faecium [31])
2 µg/mL: MIC90 (Enterococcus faecalis [2]) | MIC (Enterococcus faecalis [5]) | MIC90 (Staphylococcus [13]) | MIC90 (Enterococcus faecalis [18])

Source: ChEMBL document CHEMBL1255329, “Effect of polysorbate 80 on oritavancin binding to plastic surfaces: implications for susceptibility testing” (2008)
